Measurements reported in publication PMC9636582 (The Journal of Biological Chemistry, 2022).

Tests used:
GAL4-PPARδ LBD = molecular target: T1, GAL4-PPARδ LBD (Homo sapiens, UniProt Q03181); assay: GAL4-PPARδ LBD luciferase reporter assay in HEK293 cells; assay type: cell-based; conditions: for PPARδ activation (in words): 100 μM fatty acids, Fig. 1B
T1 construct: chimeric receptors containing the LBD of various NRs; expressed in transfected cells; host or cells: HEK293
T1 sequence (Q03181 211-439 limits assumed): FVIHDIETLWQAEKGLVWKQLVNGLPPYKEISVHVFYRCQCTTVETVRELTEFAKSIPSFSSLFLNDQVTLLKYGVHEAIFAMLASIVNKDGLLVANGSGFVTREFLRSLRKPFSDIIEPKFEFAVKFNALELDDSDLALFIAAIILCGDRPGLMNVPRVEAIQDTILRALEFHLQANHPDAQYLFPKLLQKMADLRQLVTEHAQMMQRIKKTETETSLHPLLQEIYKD

GAL4-PPARα LBD = molecular target: T2, GAL4-PPARα LBD (Homo sapiens, UniProt Q07869); assay: GAL4-PPARα LBD luciferase reporter assay in HEK293 cells; assay type: cell-based; conditions: for ligand-induced activation of PPARα (in words): 100 μM fatty acids, Fig. 1B
T2 construct: chimeric receptors containing the LBD of various NRs; expressed in transfected cells; host or cells: HEK293
T2 sequence (Q07869 239-466 limits assumed): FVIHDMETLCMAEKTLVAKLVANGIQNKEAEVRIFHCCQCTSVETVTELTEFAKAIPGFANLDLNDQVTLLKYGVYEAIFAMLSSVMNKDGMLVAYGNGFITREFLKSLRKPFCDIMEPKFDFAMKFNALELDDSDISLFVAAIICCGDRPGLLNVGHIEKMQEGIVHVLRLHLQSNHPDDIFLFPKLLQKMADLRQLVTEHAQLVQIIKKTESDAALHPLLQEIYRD

[1] = test system: human intestinal organoids; assay: PPARδ target gene mRNA expression in human intestinal organoids (RT-qPCR); assay type: cell-based; conditions: 1 μM GW1516 or 30 μM fatty acids for 24 h
[2] = molecular target: T3, recombinant human PPARδ LBD protein (Homo sapiens, UniProt Q03181); assay: [14C] DHA competitive ligand-binding assay; conditions: 100 nM [14C] DHA, 1 μM nonlabeled fatty acids, overnight at 4 °C
T3 construct: Human PPARδ LBD (140–442) construct was cloned into a pGEX-4T1 vector; GST (N, cleaved yes); made in house; host or cells: Escherichia coli BL21 (DE3) pLys
T3 sequence (Q03181 140-441 limits assumed): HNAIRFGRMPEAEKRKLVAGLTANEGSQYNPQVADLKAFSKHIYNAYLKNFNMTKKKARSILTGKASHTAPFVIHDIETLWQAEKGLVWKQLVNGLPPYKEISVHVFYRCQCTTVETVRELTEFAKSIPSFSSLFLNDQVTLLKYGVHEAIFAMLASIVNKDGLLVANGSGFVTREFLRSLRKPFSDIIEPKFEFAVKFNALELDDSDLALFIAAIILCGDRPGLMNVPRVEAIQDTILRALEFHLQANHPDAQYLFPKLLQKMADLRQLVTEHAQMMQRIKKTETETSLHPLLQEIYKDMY
Procedure: To identify the mechanism underlying the activation of PPARδ by GLA-derived fatty acids, we performed a [^14C] DHA competitive ligand-binding assay describing the displacement of ligands from receptors with recombinant human PPARδ LBD protein produced by a bacterial expression system (Figs. 4, A and B and S2). PPARδ LBD or glutathione-S-transferase (GST) recombinant protein was incubated with both [^14C] […] A competitive inhibition of [^14C] DHA binding was analyzed as a direct binding to PPARδ LBD (see Experimental procedures). […] DHA binding to PPARδ LBD competitively (Fig. 4C).
Human PPARδ LBD (140–442) construct was cloned into a pGEX-4T1 vector (GE Healthcare Life Sciences) at the restriction enzyme site of SmaI and XhoI. The protein was expressed in Eschericia coli BL21 (DE3) pLys cells (Novagen) as a C-terminal fusion to a GST tag with a thrombin cleavage site. A single colony was cultured in 2 ml of LB media supplemented with 20 μg/ml of ampicillin and 30 μg/ml of chloramphenicol at 37 °C and 200 rpm for 18 h. The preculture was then transferred to 1 l of LB media until the A600 reached 0.6 to 0.8. IPTG was added to produce a final concentration of 0.4 mM, and expression was continued at 24 °C and 150 rpm for 18 h. Cells were collected using centrifugation, and pellets were resuspended in lysis buffer comprising 50 mM Tris–HCl (pH 7.5), 150 mM NaCl, 5 mM DTT, 1 mM EDTA, and 10% glycerol before sonication was performed. The supernatant was then collected using centrifugation at 100,000g and 4 °C for 70 min, after which it was loaded onto GST Accept (nacalai tesque) and equilibrated using the lysis buffer. Subsequently, the column was washed using five column volumes of the lysis buffer and thrombin cleavage buffer comprising 20 mM Tri–HCl (pH 8.4), 150 mM NaCl, 2.5 mM CaCl2, and 1 mM DTT, respectively. The GST tag was removed via digestion using biotinylated thrombin (Merck) for 18 h at 4 °C. The biotinylated thrombin was removed using Dynabeads M-280 streptavidin (Veritas). The purity of the target proteins was verified using SDS-PAGE.
A ligand-binding assay was performed as described previously with minor modifications ([72]). Briefly, purified recombinant human PPARδ LBD protein was incubated with 100 nM ([…]) [^14C] DHA in GP buffer (137 mM NaCl, 8.1 mM Na2HPO4, 2.68 mM KCl, 1.47 mM KH2PO4, 1% sodium azide, and 0.1% gelatin) overnight at 4 °C with or without various competitors (1 μM), including DHA and GLA-derived fatty acids. Unbound ligands were removed by adsorption to 3% dextran-coated charcoal, and the supernatant was collected. The PPARδ-bound [^14C] DHA was measured using a scintillation counter (PerkinElmer).

VP16-PPARδ / GAL4-SRC-1 = molecular target: T4, VP16-PPARδ / GAL4-SRC-1 (Homo sapiens, UniProt Q03181); assay: mammalian two-hybrid assay, VP16-PPARδ and coactivator GAL4-SRC-1; assay type: cell-based; conditions: 30 μM fatty acids, 100 nM GW1516, HEK293 cells, Fig. 3A
T4 construct: expressed in transfected cells; host or cells: HEK293
T4 sequence (Q03181 1-441): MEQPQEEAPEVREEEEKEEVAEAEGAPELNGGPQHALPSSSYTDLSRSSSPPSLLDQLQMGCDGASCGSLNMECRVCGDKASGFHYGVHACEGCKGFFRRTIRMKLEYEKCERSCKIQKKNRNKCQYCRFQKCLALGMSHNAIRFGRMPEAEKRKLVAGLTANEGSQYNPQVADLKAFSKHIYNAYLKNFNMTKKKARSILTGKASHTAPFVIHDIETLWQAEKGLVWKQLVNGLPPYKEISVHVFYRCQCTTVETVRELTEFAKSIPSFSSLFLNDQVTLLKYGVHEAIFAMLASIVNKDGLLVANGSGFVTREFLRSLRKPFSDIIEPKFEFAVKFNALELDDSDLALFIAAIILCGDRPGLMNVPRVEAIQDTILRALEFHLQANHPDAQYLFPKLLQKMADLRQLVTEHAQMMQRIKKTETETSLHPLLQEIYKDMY
T4 sequence (Q15788 595-771 partner limits assumed): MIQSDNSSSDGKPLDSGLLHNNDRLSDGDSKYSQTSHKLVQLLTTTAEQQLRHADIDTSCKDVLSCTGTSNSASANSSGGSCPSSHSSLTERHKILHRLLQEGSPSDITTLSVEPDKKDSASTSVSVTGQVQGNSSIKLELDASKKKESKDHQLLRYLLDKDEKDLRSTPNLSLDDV

VP16-PPARα / GAL4-SRC-1 = molecular target: T5, VP16-PPARα / GAL4-SRC-1 (Homo sapiens, UniProt Q07869); assay: mammalian two-hybrid assay, VP16-PPARα and coactivator GAL4-SRC-1; assay type: cell-based; conditions: 30 μM fatty acids, 1 μM GW7647, HEK293 cells, Fig. 3B
T5 construct: expressed in transfected cells; host or cells: HEK293
T5 sequence (Q07869 1-468): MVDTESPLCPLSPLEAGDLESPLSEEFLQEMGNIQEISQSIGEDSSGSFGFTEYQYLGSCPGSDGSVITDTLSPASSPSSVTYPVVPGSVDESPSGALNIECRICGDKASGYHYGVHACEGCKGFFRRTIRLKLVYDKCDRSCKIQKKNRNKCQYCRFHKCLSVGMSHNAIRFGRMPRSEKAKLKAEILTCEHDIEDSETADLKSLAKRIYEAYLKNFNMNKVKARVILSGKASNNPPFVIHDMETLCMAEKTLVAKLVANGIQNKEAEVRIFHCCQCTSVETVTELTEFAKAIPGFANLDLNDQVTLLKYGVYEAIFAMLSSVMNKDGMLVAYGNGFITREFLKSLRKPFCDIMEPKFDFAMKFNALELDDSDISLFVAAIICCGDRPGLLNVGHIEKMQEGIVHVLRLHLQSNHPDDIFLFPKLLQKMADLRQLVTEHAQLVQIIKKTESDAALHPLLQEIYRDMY
T5 sequence (Q15788 595-771 partner limits assumed): T4 sequence (Q15788 595-771 partner limits assumed)

VP16-PPARα / GAL4-NCoR = molecular target: T6, VP16-PPARα / GAL4-NCoR (Homo sapiens, UniProt Q07869); assay: mammalian two-hybrid assay, VP16-PPARα and corepressor NCoR; assay type: cell-based; conditions: 30 μM fatty acids, HEK293 cells, Fig. 3D
T6 construct: expressed in transfected cells; host or cells: HEK293
T6 sequence (Q07869 1-468): T5 sequence (Q07869 1-468)

VP16-PPARδ / GAL4-NCoR = molecular target: T7, VP16-PPARδ / GAL4-NCoR (Homo sapiens, UniProt Q03181); assay: mammalian two-hybrid assay, VP16-PPARδ and corepressor NCoR; assay type: cell-based; conditions: 30 μM fatty acids, HEK293 cells, Fig. 3C
T7 construct: expressed in transfected cells; host or cells: HEK293
T7 sequence (Q03181 1-441): T4 sequence (Q03181 1-441)

full-length PPARδ = molecular target: T8, full-length PPARδ (Homo sapiens, UniProt Q03181); assay: full-length PPARδ PPRE luciferase reporter assay in HEK293 cells; assay type: cell-based; conditions: Fig. 1C
T8 construct: expressed in transfected cells; host or cells: HEK293
T8 sequence (Q03181 1-441): T4 sequence (Q03181 1-441)
Excerpt: Luciferase activities were normalized to β-galactosidase activities.

| SMILES | PPARδ activation (in words) (GAL4-PPARδ LBD) | ligand-induced activation of PPARα (in words) (GAL4-PPARα LBD) | also measured |
| --- | --- | --- | --- |
| CC/C=C\C/C=C\C/C=C\C/C=C\C/C=C\C/C=C\CCC(=O)O [DHA, docosahexaenoic acid, reference compound] | – | – | EC50 (GAL4-PPARδ LBD; GAL4-PPARδ LBD, calculated from luciferase activity with Quest Graph EC50 Calculator): 44.6 µM; EC50 (GAL4-PPARα LBD; GAL4-PPARα LBD, calculated from luciferase activity with Quest Graph EC50 Calculator): 9.32 µM |
| Cc1cc(SCc2sc(-c3ccc(C(F)(F)F)cc3)nc2C)ccc1OCC(=O)O [GW1516, reference compound] | – | – | expression of PPARδ target genes (CPT1A, HMGCS2, PDK4, ACSL1) [1]: upregulated the mRNA expression of target genes |
| CCCCCC(O)CC/C=C\CCCCCCCC(=O)O (centres unmarked) [HYD] | effective | little or no effect | – |
| CCCCCC(O)CCC(O)CCCCCCCCC(=O)O (centres unmarked) [HYE] | effective | little or no effect | – |
| CCCCCC(=O)CC/C=C\CCCCCCCC(=O)O [KetoD] | effective | little or no effect | – |
| CC/C=C\CC(O)CC/C=C\CCCCCCCC(=O)O (centres unmarked) [αHYD] | effective | little or no effect | – |
| CC/C=C\CC(O)CCC(O)CCCCCCCCC(=O)O (centres unmarked) [αHYE] | – | little or no effect | – |
| CC/C=C\CC(=O)CC/C=C\CCCCCCCC(=O)O [αKetoD] | – | little or no effect | – |
| CCCCCC(O)CCC(O)CC/C=C\CCCCC(=O)O (stereo not drawn) [γHYE, 10,13-dihydroxy-cis-6-octadecenoic acid] | more robust PPARδ activation than their original compound, GLA | – | competitive displacement of [14C] DHA binding to PPARδ LBD [2]: displaced [^14C] DHA binding to PPARδ LBD competitively; recruitment of coactivator SRC-1 to PPARδ (VP16-PPARδ / GAL4-SRC-1): induced coactivator-recruitment; recruitment of coactivator SRC-1 to PPARα (VP16-PPARα / GAL4-SRC-1): induced coactivator-recruitment; interaction between PPARα and corepressor NCoR (VP16-PPARα / GAL4-NCoR): reduced the interaction; interaction between PPARδ and corepressor NCoR (VP16-PPARδ / GAL4-NCoR): reduced the interaction; transactivation of full-length PPARδ (in words) (full-length PPARδ): activated PPARδ potently |
